Test results published in the supplement of paper PMC13380429.

How the values were obtained:
HepG2 [1] = assay: drug sensitivity score (DSS) for viability; higher = more toxic; extreme values may be limits of the assay; conditions: 72 h
U2OS [2] = assay: as above; conditions: 72 h
Vero E6 [3] = assay: as above; conditions: 72 h
Caco-2 [4] = assay: as above; conditions: 72 h
Calu-3 [5] = assay: as above; conditions: 72 h
HepG2 [6] = assay: relative viability EC50 (midpoint between 100% and the lowest measured viability); higher = less toxic; conditions: 72 h
U2OS [7] = assay: as above; conditions: 72 h
Vero E6 [8] = assay: as above; conditions: 72 h
Calu-3 [9] = assay: as above; conditions: 72 h
A549-ACE2 [10] = assay: drug-induced phospholipidosis relative to tamoxifen; higher = more phospholipidosis
[11] = test system: A549-ACE2 infected with SARS-CoV-2; assay: morphology score (similarity to uninfected cells); higher = more like uninfected cells; conditions: 24 h
[12] = test system: A549-ACE2 infected with SARS-CoV-2; assay: cell count relative to DMSO; higher = less toxic; conditions: 24 h
[13] = test system: A549-ACE2 infected with SARS-CoV-2; assay: SARS-CoV-2 infection rate relative to DMSO; higher = more infection; conditions: 24 h
A549-ACE2 [14] = assay: phospholipidosis EC50; higher = less potent phospholipidosis inducer
HepG2 [15] = assay: cell viability relative to DMSO; higher = less toxic; conditions: 72 h
U2OS [16] = assay: as above; conditions: 72 h
Vero E6 [17] = assay: as above; conditions: 72 h
Caco-2 [18] = assay: as above; conditions: 72 h
Calu-3 [19] = assay: as above; conditions: 72 h
Caco-2 [20] = assay: relative viability EC50 (midpoint between 100% and the lowest measured viability); higher = less toxic; conditions: 72 h

Structure (SMILES): CCN(CC)CCCCNc1ncc2cc(-c3cc(OC)cc(OC)c3)c(NC(=O)NC(C)(C)C)nc2n1
- drug sensitivity score (HepG2 [1]): 3.5
- drug sensitivity score (U2OS [2]): 5.4
- drug sensitivity score (Vero E6 [3]): 5.2
- drug sensitivity score (Caco-2 [4]): 1.2
- drug sensitivity score (Calu-3 [5]): 1.1
- relative viability EC50 (HepG2 [6]): 2580 nM
- relative viability EC50 (U2OS [7]): 1580 nM
- relative viability EC50 (Vero E6 [8]): 1960 nM
- relative viability EC50 (Calu-3 [9]): > 10 µM
- drug-induced phospholipidosis (A549-ACE2 [10]; 0.3 µM, 24 h): 4.11%
- drug-induced phospholipidosis (A549-ACE2 [10]; 0.3 µM, 48 h): 4.6%
- drug-induced phospholipidosis (A549-ACE2 [10]; 0.3 µM, 72 h): 6.12%
- drug-induced phospholipidosis (A549-ACE2 [10]; 0.833333 µM, 24 h): 13.5%
- drug-induced phospholipidosis (A549-ACE2 [10]; 0.833333 µM, 48 h): 12.8%
- drug-induced phospholipidosis (A549-ACE2 [10]; 0.833333 µM, 72 h): 13.2%
- drug-induced phospholipidosis (A549-ACE2 [10]; 3.33333 µM, 24 h): 106%
- drug-induced phospholipidosis (A549-ACE2 [10]; 3.33333 µM, 48 h): 151%
- drug-induced phospholipidosis (A549-ACE2 [10]; 6.66667 µM, 24 h): 165%
- drug-induced phospholipidosis (A549-ACE2 [10]; 6.66667 µM, 48 h): 224%
- drug-induced phospholipidosis (A549-ACE2 [10]; 10 µM, 24 h): 234%
- drug-induced phospholipidosis (A549-ACE2 [10]; 10 µM, 48 h): 200%
- drug-induced phospholipidosis (A549-ACE2 [10]; 10 µM, 72 h): 168%
- drug-induced phospholipidosis (A549-ACE2 [10]; 30 µM, 24 h): 84.5%
- morphology score ([11]; 0.1 µM): 0.01
- morphology score ([11]; 0.3 µM): -0.12
- morphology score ([11]; 1 µM): 0.28
- morphology score ([11]; 3 µM): 0.68
- cell count ([12]; 0.1 µM): 96%
- cell count ([12]; 0.3 µM): 90%
- cell count ([12]; 1 µM): 103%
- cell count ([12]; 3 µM): 109%
- SARS-CoV-2 infection rate ([13]; 0.1 µM): 105%
- SARS-CoV-2 infection rate ([13]; 0.3 µM): 105%
- SARS-CoV-2 infection rate ([13]; 1 µM): 96%
- SARS-CoV-2 infection rate ([13]; 3 µM): 35%
- phospholipidosis EC50 (A549-ACE2 [14]; 24 h): 3.18 µM
- phospholipidosis EC50 (A549-ACE2 [14]; 48 h): 3.06 µM
- cell viability (HepG2 [15]; 1 nM): 91.9%
- cell viability (HepG2 [15]; 10 nM): 101%
- cell viability (HepG2 [15]; 100 nM): 87.9%
- cell viability (HepG2 [15]; 1000 nM): 96.1%
- cell viability (HepG2 [15]; 10000 nM): 45.5%
- cell viability (U2OS [16]; 1 nM): 106%
- cell viability (U2OS [16]; 10 nM): 105%
- cell viability (U2OS [16]; 100 nM): 100%
- cell viability (U2OS [16]; 1000 nM): 85.8%
- cell viability (U2OS [16]; 10000 nM): 41.5%
- cell viability (Vero E6 [17]; 1 nM): 94.5%
- cell viability (Vero E6 [17]; 10 nM): 97.1%
- cell viability (Vero E6 [17]; 100 nM): 100%
- cell viability (Vero E6 [17]; 1000 nM): 90.1%
- cell viability (Vero E6 [17]; 10000 nM): 35.9%
- cell viability (Caco-2 [18]; 1 nM): 102%
- cell viability (Caco-2 [18]; 10 nM): 105%
- cell viability (Caco-2 [18]; 100 nM): 103%
- cell viability (Caco-2 [18]; 1000 nM): 103%
- cell viability (Caco-2 [18]; 10000 nM): 69%
- cell viability (Calu-3 [19]; 1 nM): 98.9%
- cell viability (Calu-3 [19]; 10 nM): 98.9%
- cell viability (Calu-3 [19]; 100 nM): 100%
- cell viability (Calu-3 [19]; 1000 nM): 98.5%
- cell viability (Calu-3 [19]; 10000 nM): 75.6%

Structure (SMILES): CN1CCC[C@@H]1CCO[C@](C)(c1ccccc1)c1ccc(Cl)cc1 [clemastine]
- drug sensitivity score (HepG2 [1]): 1.2
- drug sensitivity score (U2OS [2]): 0
- drug sensitivity score (Vero E6 [3]): 0
- drug sensitivity score (Caco-2 [4]): 0
- drug sensitivity score (Calu-3 [5]): 0.8
- relative viability EC50 (HepG2 [6]): > 10000 nM
- relative viability EC50 (U2OS [7]): > 10000 nM
- relative viability EC50 (Vero E6 [8]): > 10000 nM
- relative viability EC50 (Caco-2 [20]): > 10 µM
- drug-induced phospholipidosis (A549-ACE2 [10]; 0.3 µM, 24 h): 0.63%
- drug-induced phospholipidosis (A549-ACE2 [10]; 0.3 µM, 48 h): 1.7%
- drug-induced phospholipidosis (A549-ACE2 [10]; 0.3 µM, 72 h): 4.55%
- drug-induced phospholipidosis (A549-ACE2 [10]; 0.833333 µM, 24 h): 8.33%
- drug-induced phospholipidosis (A549-ACE2 [10]; 0.833333 µM, 48 h): 9.62%
- drug-induced phospholipidosis (A549-ACE2 [10]; 0.833333 µM, 72 h): 9.81%
- drug-induced phospholipidosis (A549-ACE2 [10]; 3.33333 µM, 24 h): 38.5%
- drug-induced phospholipidosis (A549-ACE2 [10]; 3.33333 µM, 48 h): 25.8%
- drug-induced phospholipidosis (A549-ACE2 [10]; 3.33333 µM, 72 h): 21.5%
- drug-induced phospholipidosis (A549-ACE2 [10]; 6.66667 µM, 24 h): 87.2%
- drug-induced phospholipidosis (A549-ACE2 [10]; 6.66667 µM, 48 h): 80.6%
- drug-induced phospholipidosis (A549-ACE2 [10]; 6.66667 µM, 72 h): 79.5%
- drug-induced phospholipidosis (A549-ACE2 [10]; 10 µM, 24 h): 102%
- drug-induced phospholipidosis (A549-ACE2 [10]; 10 µM, 48 h): 96.8%
- drug-induced phospholipidosis (A549-ACE2 [10]; 10 µM, 72 h): 95.6%
- drug-induced phospholipidosis (A549-ACE2 [10]; 30 µM, 24 h): 98.4%
- morphology score ([11]; 0.3 µM): 0.04
- morphology score ([11]; 3 µM): 0.8
- morphology score ([11]; 10 µM): 0.86
- morphology score ([11]; 30 µM): 0.52
- cell count ([12]; 0.3 µM): 99%
- cell count ([12]; 3 µM): 120%
- cell count ([12]; 10 µM): 123%
- cell count ([12]; 30 µM): 104%
- SARS-CoV-2 infection rate ([13]; 0.3 µM): 100%
- SARS-CoV-2 infection rate ([13]; 3 µM): 43%
- SARS-CoV-2 infection rate ([13]; 10 µM): 32%
- SARS-CoV-2 infection rate ([13]; 30 µM): 21%
- phospholipidosis EC50 (A549-ACE2 [14]; 24 h): 3.92 µM
- phospholipidosis EC50 (A549-ACE2 [14]; 48 h): 4.81 µM
- phospholipidosis EC50 (A549-ACE2 [14]; 72 h): 4.96 µM
- cell viability (HepG2 [15]; 1 nM): 108%
- cell viability (HepG2 [15]; 10 nM): 95.6%
- cell viability (HepG2 [15]; 100 nM): 104%
- cell viability (HepG2 [15]; 1000 nM): 96.5%
- cell viability (HepG2 [15]; 10000 nM): 78.5%
- cell viability (U2OS [16]; 1 nM): 95.4%
- cell viability (U2OS [16]; 10 nM): 101%
- cell viability (U2OS [16]; 100 nM): 96.1%
- cell viability (U2OS [16]; 1000 nM): 103%
- cell viability (U2OS [16]; 10000 nM): 96.7%
- cell viability (Vero E6 [17]; 1 nM): 102%
- cell viability (Vero E6 [17]; 10 nM): 96.5%
- cell viability (Vero E6 [17]; 100 nM): 96.8%
- cell viability (Vero E6 [17]; 1000 nM): 95.6%
- cell viability (Vero E6 [17]; 10000 nM): 96.3%
- cell viability (Calu-3 [19]; 1 nM): 96.8%
- cell viability (Calu-3 [19]; 10 nM): 101%
- cell viability (Calu-3 [19]; 100 nM): 91.8%
- cell viability (Calu-3 [19]; 1000 nM): 105%
- cell viability (Calu-3 [19]; 10000 nM): 73.9%
